According to patent US6887669B1, “Reagents for assays for ligands” (Dade Behring Marburg GmbH, priority 1996, dated 2005):

Assays:
[1] = Background absorbance at 340 nm of Reagent A containing releasing agent; assay type: physicochemical; settings: for C A 340 nm (background absorbance): 3 μL negative NHP + 72 μL water + 155 μL Reagent A, 0.6 cm path; for C A 340 nm (background absorbance) / D ΔA = agent - control ΔA 340 nm: ANS 0.25 mM, anisic acids 12.5 mM in Rgt A
Experimental: In both runs, the background absorbance at 340 nm for each Reagent A was measured in duplicate on a 230-μL combination of 3 μL negative NHP, 72 μL of deionized water, and 155 μL Reagent A. The cell path length was 0.6 cm. […] These changes are noted as follows. Reagent B and water were added in cycle 4. The analysis was finished at the end of cycle 15. Rates were determined using the 5 absorbance readings of cycles 11 through 15.

[2] = tested on: MPA bound to plasma proteins in normal human plasma (NHP); assay: MPA enzyme immunoassay rates with releasing agents in Reagent A (NHP versus buffer), Example 2; settings: for I (H-G) Buff Rate Span: 0 to 10 μg/mL MPA in buffer; for J (H-F) Buff-NHP Rate Diff.: 10 μg/mL MPA, closer to zero = better releasing effect; for G Buff with 0 μg/mL MPA Rate / H Buff with 10 μg/mL MPA Rate: 50 mM MES buffer pH 7.1; for G Buff with 0 μg/mL MPA Rate / H Buff with 10 μg/mL MPA Rate / E NHP with 0 μg/mL MPA Rate / F NHP with 10 μg/mL MPA Rate: ANS 0.25 mM, anisic acids 12.5 mM in Rgt A
Experimental: Rates were determined on a Cobas Mira Plus® instrument (Roche Diagnostics Systems, Inc., Branchburg, N.J.). The temperature was kept at 37° C. for the entire assay. Timings were carried out in cycles with each cycle being 25 seconds. In cycle 1, the first cycle, 75 μL of water and 3 μL of a sample were mixed with 155 μL of A diluent in a 0.6 cm path length cuvette. This mixture was incubated until the addition of Reagent B in cycle 7. […] In cycle 7, seventy-five μL of Reagent B followed by 20 μL of water was then added to the cuvette, mixed, and incubated until the end of cycle 25 at which time the assay was finished. During the assay, absorbance readings at 340 nm were made at the end of every cycle. A best linear fit was then made using only the 12 consecutive absorbance readings of cycles 14 through 25 versus time in minutes. The slope of this line was the rate.
In these experiments, the diluent for Reagent A (Rgt A) was made somewhat differently than that in Example 1. However, the composition was the same, except for component 7 (releasing agent, o-anisic acid) and component 10 (concentration of MPA antibody). Five diluents were prepared, four with one of each of the above agents and one control with no agent. First, a 2×solution was made in the manner described in Example 1 but which had only components 1 through 5 and 9 at twice the amounts listed. Next, for three of the diluents, each of the three anisic acid isomers was weighed to achieve a final molarity of 12.5 mM and predissolved in one quarter the final volume of water and a minimum amount of 6 N NaOH (approximately 6 drops per 0.2 grams anisic acid). For the fourth diluent, the agent, ANS, was weighed to give a 0.25 mM final concentration and added to one quarter the final volume of water. The fifth diluent, the control, had no releasing agent. To make each of these five diluents, the appropriate amounts of the 2×solution, the 1×amount of BSA, component 8, and the 1×amount of the Pluronic 25R solution, component 6, were combined. Four of these then received the appropriate agent. All were mixed well. Where necessary, pH adjustments were made as described previously and each preparation was brought to the final volume with deionized water to achieve 1× concentrations of components. Each of these A diluents was then filtered through a 0.2 micron filter. Final pH measurements on each were all between 5.5 to 5.7. For each of these five A diluents, a corresponding Reagent A was made by adding antibody to MPA for a final concentration of 6.5 μg/mL. Reagent B (Rgt B) was prepared as described in Example 1 except that component 20 was omitted and 0.1% BSA (Miles Diagnostics, Kankakee, Ill.) was substituted for BLG.
In a total of two runs the effects of each of the four agents relative to a control of no agent was examined with respect to (1) background absorbance at 340 nm, (2) the rate of a negative MPA sample, (3) the rate span between 0 and 10 μg/mL MPA, and (4) the closeness of rate matching of a 10 μg/mL MPA spike in NHP and in buffer. Both runs included the control Reagent A. The first run evaluated Reagent A with ANS while the second run evaluated Reagent A preparations containing the structural isomers of anisic acid.
MPA was spiked into NHP and buffer (Buff) to achieve a final concentration of 10 μg/mL MPA. Buffer in this example was 50 mM MES (2-[N-morpholino]ethanesulfonic acid, obtained from Sigma Chemical Company) with 0.1% (weight/volume) sodium azide, pH 7.1. As with PBS, this buffer has no protein and thus no protein binding of MPA can occur.
In both runs, the background absorbance at 340 nm for each Reagent A was measured in duplicate on a 230-μL combination of 3 μL negative NHP, 72 μL of deionized water, and 155 μL Reagent A. The cell path length was 0.6 cm. The average A340 (A=absorbance) values are found in Column C of Table 1. Duplicate rates were determined on the spiked and unspiked NHP and buffer similar to Example 1. […]

[3] = Discoloration of Reagent A on exposure to light; assay type: physicochemical; settings: agent formulated in Reagent A
[4] = tested on: MPA bound to plasma proteins in normal human plasma; assay: MPA rates in plasma spikes in the presence of co-administered drugs and salicylate, with or without o-anisic acid, Example 4
Experimental: In a separate study, the ability of o-anisic acid to eliminate the effect of salicylate on rates of MPA plasma spikes was compared. Two sets of antibody reagents (Reagent A) were prepared to the basic formulation described in Example 2 above. In one reagent, no releasing agent was added; in another reagent, o-anisic acid was added at 12.5 mM. A common Reagent B was prepared as described in Example 2. Rates for four levels of MPA spikes into plasma and a plasma control were measured with each reagent set. […] Salicylate was present at 659 μg/mL. Rates were determined as described in Example 2 above with the exception of the absorbance read window, which was extended to cycle 20 where the assay was ended. Rates were determined using the 10 consecutive absorbance readings of cycles 11 through 20.

MPA enzyme immunoassay = assay: Effect of salicylate as releasing agent on total dose-response curve of MPA enzyme immunoassay; settings: salicylate used as releasing agent
Excerpt: Salicylate is known to increase MPA free fraction in normal human plasma when present at concentrations that may be observed in chronic administration of aspirin (Nowak, infra). […] It is also known that 8-anilino-1-naphthalenesulfonic acid (ANS) functions as a releasing agent in immunoassays (Nerli, et al., Arch Int Physiol Biochim Biophys (1994) 102(1):5-8 and Seth, et al., Clin Chem (1975) 21(10):1406-1413. However, ANS has disadvantages because of its background absorbance at 340 nm and its susceptibility to light degradation. The background absorbance is particularly disadvantageous in enzyme immunoassays. However, ANS has been used in certain enzyme assays under conditions where its disadvantages can be tolerated.

[5] = cited from earlier work
[6] = tested on: MPA bound to plasma proteins in normal human plasma pool (NHP); assay: EMIT-type enzyme immunoassay for MPA with o-anisic acid in Reagent A: quantitation of MPA spike in NHP versus protein-free PBS; settings: average of two spikes, formulation with o-anisic acid, pooled sd 0.4 μg/mL
Experimental: Reagent A was prepared by first making an anisic acid solution. Anisic acid was dissolved in 1 N NaOH in an amount equal to 25 mL per 1.52 grams of anisic acid. In a separate container was weighed 70% of the final weight of deionized water, to which was added components 1 through 5 inclusive and also component 6 using the prepared solution of Pluronic®25R2 at 10 mL thereof per 1017.9 g (or 1.0 liter) of final solution. This solution was stirred and the anisic acid solution was added. If necessary, the pH of the preparation was adjusted within the range of 5.50 to 5.70 with 6 N NaOH. Next, components 8 and 9 were added and the solution was stirred. If necessary, the pH was adjusted to the above range. […]
For Reagent B deionized water was weighed in an amount equal to 80% of the final weight. […] The conjugate, component 19, was added to achieve a rate of 300±10 mA/min; rate is defined as the change in absorbance at 340 nm per minute of reaction time and is usually expressed as mA/min.
Rates were determined on a Cobas Mira Plus® instrument (Roche Diagnostics Systems, Inc., Branchburg, N.J.). […] During the assay, absorbance readings at 340 nm were made at the end of every cycle. A best linear fit was then made using only the 12 consecutive absorbance readings of cycles 14 through 25 versus time in minutes. […]

[7] = salicylate 659 μg/mL + NI drugs in plasma, no releasing agent in Reagent A
[8] = plasma + methanol control, o-anisic acid 12.5 mM in Reagent A
[9] = plasma with NI drugs + salicylate 659 μg/mL, o-anisic acid 12.5 mM in Reagent A
[10] = plasma with non-interfering co-administered drugs, o-anisic acid 12.5 mM in Reagent A

Row | SMILES | C A 340 nm (background absorbance) [1] | D ΔA = agent - control ΔA 340 nm [1] | I (H-G) Buff Rate Span [2] [mA/min] | J (H-F) Buff-NHP Rate Diff. [2] [mA/min] | G Buff with 0 μg/mL MPA Rate [2] [mA/min] | H Buff with 10 μg/mL MPA Rate [2] [mA/min] | E NHP with 0 μg/mL MPA Rate [2] [mA/min] | F NHP with 10 μg/mL MPA Rate [2] [mA/min] | further results
1 | COc1ccc(C(=O)O)cc1 [p-AA] | 0.494 | 0.008 | 96.0 | −2.1 | 182.3 | 278.3 | 182.7 | 280.4 | 
2 | O=S(=O)(O)c1cccc2cccc(Nc3ccccc3)c12 [ANS, 8-anilino-1-naphthalene sulfonic acid, reference compound] | 0.779 | 0.322 | 120.2 | 2.0 | 156.0 | 276.2 | 158.2 | 274.2 | discoloration of Reagent A when exposed to light [3]: visibly discolored when exposed to light
3 | O=C(O)c1ccccc1O [salicylic acid, 2-hydroxybenzoic acid, reference compound] |  |  |  |  |  |  |  |  | absorbance above the control background at 340 nm ([1]; 25 mM in Reagent A): 0.311 absorbance units; effect of salicylate on rates of MPA in normal human plasma ([4]; absence of releasing agents): increased rates of MPA in normal human plasma; Rate, MPA + NI + Salicylate, 0.5 μg/mL MPA, Antibody Reagent Only [4, 7]: 157; Rate, MPA + NI + Salicylate, 2.5 μg/mL MPA, Antibody Reagent Only [4, 7]: 190; Rate, MPA + NI + Salicylate, 5 μg/mL MPA, Antibody Reagent Only [4, 7]: 210; Rate, MPA + NI + Salicylate, 15 μg/mL MPA, Antibody Reagent Only [4, 7]: 250; decrease in the total dose-response curve in an MPA enzyme immunoassay (MPA enzyme immunoassay): 25-50%
4 | COc1cccc(C(=O)O)c1 [m-AA] | 0.494 | 0.008 | 90.3 | −0.6 | 189.4 | 279.7 | 188.1 | 280.3 | 
5 | COc1c(C)c2c(c(O)c1C/C=C(\C)CCC(=O)OCCN1CCOCC1)C(=O)OC2 [MPA-M, morpholinoethyl (E)-6-(1,3-dihydro-4-hydroxy-6-methoxy-7-methyl-3-oxo-5-isobenzofuranyl)-4-methyl-4-hexenoate] |  |  |  |  |  |  |  |  | hydrolysis in vivo to MPA [5]: rapidly hydrolyzed in vivo to MPA
6 | COc1ccccc1C(=O)O [o-AA, o-methoxybenzoic acid] | 0.490 | 0.004 | 109.3 | 0.6 | 168.2 | 277.5 | 169.5 | 276.9 | quantitation of a 10 μg/mL MPA spike in normal human plasma pool (NHP) [6]: 10.2 µg/mL; quantitation of a 10 μg/mL MPA spike in PBS ([6]; protein-free PBS): 10.4 µg/mL; effect of o-anisic acid in the antibody reagent on salicylate interference ([4]; o-anisic acid 12.5 mM in Reagent A): eliminated this potential problem; Rate, MPA + MeOH, 0 μg/mL MPA [4, 8]: 161; Rate, MPA + MeOH, 0.5 μg/mL MPA [4, 8]: 171; Rate, MPA + MeOH, 2.5 μg/mL MPA [4, 8]: 210; Rate, MPA + MeOH, 5 μg/mL MPA [4, 8]: 234; Rate, MPA + MeOH, 15 μg/mL MPA [4, 8]: 264; Rate, MPA + NI + Salicylate, 0 μg/mL MPA [4, 9]: 161; Rate, MPA + NI + Salicylate, 0.5 μg/mL MPA [4, 9]: 171; Rate, MPA + NI + Salicylate, 2.5 μg/mL MPA [4, 9]: 211; Rate, MPA + NI + Salicylate, 5 μg/mL MPA [4, 9]: 234; Rate, MPA + NI + Salicylate, 15 μg/mL MPA [4, 9]: 263; Rate, MPA + NI, 0 μg/mL MPA [4, 10]: 161; Rate, MPA + NI, 0.5 μg/mL MPA [4, 10]: 173; Rate, MPA + NI, 2.5 μg/mL MPA [4, 10]: 211; Rate, MPA + NI, 5 μg/mL MPA [4, 10]: 234; Rate, MPA + NI, 15 μg/mL MPA [4, 10]: 263
